Measured values taken from ChEMBL document CHEMBL6074649, “An insight into recent developments in imidazole based heterocyclic compounds as anticancer agents: Synthesis, SARs, and mechanism of actions” (Eur J Med Chem, 2024).

Tests used:
HeLa [1] = test: Antiproliferative activity against human HeLa cells assessed as reduction in cell viability incubated for 72 hrs by MTT assay; assay type: functional, cell-based
HT-29 [2] = test: Antiproliferative activity against human HT-29 cells assessed as reduction in cell viability incubated for 72 hrs by MTT assay; assay type: functional, cell-based; details: HT-29, 72 h
HL-60 = test: Antiproliferative activity against human HL-60 cells assessed as reduction in cell viability incubated for 72 hrs by MTT assay; assay type: functional, cell-based; details: HL-60, 72 h
MCF7 [3] = test: Antiproliferative activity against human MCF7 cells assessed as reduction in cell viability incubated for 72 hrs by MTT assay; assay type: functional, cell-based; details: MCF7, 72 h
Tubulin = test: Inhibition of tubulin polymerization (unknown origin); assay type: protein-complex assay, Homo sapiens
A549 [4] = test: Antiproliferative activity against human A549 cells assessed as reduction in cell viability incubated for 72 hrs by MTT assay; assay type: functional, cell-based; details: A549, 72 h
Jurkat = test: Antiproliferative activity against human Jurkat cells assessed as reduction in cell viability incubated for 72 hrs by MTT assay; assay type: functional, cell-based
RS4-11 = test: Antiproliferative activity against human RS4-11 cells assessed as reduction in cell viability incubated for 72 hrs by MTT assay; assay type: functional, cell-based; details: RS4-11, 72 h
Caco-2 = test: Cytotoxicity against human Caco-2 cells assessed as reduction in cell growth incubated for 24 hrs by MTT assay; assay type: functional, cell-based; details: Caco-2, 24 h
HCT-116 [5] = test: Cytotoxicity against human HCT-116 cells assessed as reduction in cell growth incubated for 24 hrs by MTT assay; assay type: functional, cell-based; details: HCT-116, 24 h
HeLa [6] = test: Cytotoxicity against human HeLa cells assessed as reduction in cell growth incubated for 24 hrs by MTT assay; assay type: functional, cell-based
[7] = Anticancer activity against human MCF-10A cells assessed as reduction in cell viability measured for 24 hrs by MTT assay; assay type: toxicity, cell-based
MDA-MB-231 = test: Anticancer activity against human MDA-MB-231 cells assessed as reduction in cell viability measured for 24 hrs by MTT assay; assay type: functional, cell-based; details: MDA-MB-231, 24 h
MCF7 [8] = test: Antiproliferative activity against human MCF7 cells assessed as reduction in cell growth by MTT assay; assay type: functional, cell-based
A549 [9] = test: Antiproliferative activity against human A549 cells assessed as reduction in cell growth by MTT assay; assay type: functional, cell-based
HT-29 [10] = test: Antiproliferative activity against human HT-29 cells assessed as reduction in cell growth by MTT assay; assay type: functional, cell-based
PANC-1 = test: Antiproliferative activity against human PANC-1 cells by MTT assay; assay type: functional, cell-based
MCF7 [11] = test: Anticancer activity against human MCF7 cells assessed as reduction in cell viability at 50 ug/ml measured for 48 hrs by MTT assay relative to control; assay type: functional; details: dose 50 µg/ml
HCT-116 [12] = test: Anticancer activity against human HCT-116 cells assessed as reduction in cell viability at 50 ug/ml measured for 48 hrs by MTT assay relative to control; assay type: functional; details: dose 50 µg/ml
HFF [13] = test: Anticancer activity against human HFF cells assessed as reduction in cell viability at 10 ug/ml measured for 24 hrs by MTT assay relative to control; assay type: functional; details: dose 10 µg/ml
MCF7 [14] = test: Anticancer activity against human MCF7 cells assessed as reduction in cell viability at 50 ug/ml measured for 24 hrs by MTT assay relative to control; assay type: functional; details: dose 50 µg/ml
HFF [15] = test: Anticancer activity against human HFF cells assessed as reduction in cell viability at 50 ug/ml measured for 24 hrs by MTT assay relative to control; assay type: functional; details: dose 50 µg/ml
HFF [16] = test: Anticancer activity against human HFF cells assessed as reduction in cell viability at 10 ug/ml measured for 48 hrs by MTT assay relative to control; assay type: functional; details: dose 10 µg/ml
MCF7 [17] = test: Anticancer activity against human MCF7 cells assessed as reduction in cell viability at 10 ug/ml measured for 48 hrs by MTT assay relative to control; assay type: functional; details: dose 10 µg/ml
HCT-116 [18] = test: Anticancer activity against human HCT-116 cells assessed as reduction in cell viability at 10 ug/ml measured for 24 hrs by MTT assay relative to control; assay type: functional; details: dose 10 µg/ml
HFF [19] = test: Anticancer activity against human HFF cells assessed as reduction in cell viability at 50 ug/ml measured for 48 hrs by MTT assay relative to control; assay type: functional; details: dose 50 µg/ml
MCF7 [20] = test: Anticancer activity against human MCF7 cells assessed as reduction in cell viability at 10 ug/ml measured for 24 hrs by MTT assay relative to control; assay type: functional; details: dose 10 µg/ml
HCT-116 [21] = test: Anticancer activity against human HCT-116 cells assessed as reduction in cell viability at 50 ug/ml measured for 24 hrs by MTT assay relative to control; assay type: functional; details: dose 50 µg/ml
HCT-116 [22] = test: Anticancer activity against human HCT-116 cells assessed as reduction in cell viability at 10 ug/ml measured for 48 hrs by MTT assay relative to control; assay type: functional; details: dose 10 µg/ml
HepG2 [23] = test: Anticancer activity against human HepG2 cells; assay type: functional, cell-based
PC-3 = test: Anticancer activity against human PC-3 cells; assay type: functional, cell-based
MCF7 [24] = test: Anticancer activity against human MCF7 cells; assay type: functional, cell-based
DU-145 = test: Anticancer activity against human DU-145 cells; assay type: functional, cell-based
HCT-116 [25] = test: Anticancer activity against human HCT-116 cells; assay type: functional, cell-based
SNU-C1 = test: Anticancer activity against human SNU-C1 cells; assay type: functional, cell-based
[26] = Inhibition of TK (unknown origin); design: species or system Homo sapiens
COLO 320 = test: Anticancer activity against human COLO 320 cells; assay type: functional, cell-based
HT-29 [27] = test: Anticancer activity against human HT-29 cells; assay type: functional, cell-based
RKO = test: Anticancer activity against human RKO cells; assay type: functional, cell-based
SW480 = test: Anticancer activity against human SW480 cells; assay type: functional, cell-based
SW837 = test: Anticancer activity against human SW837 cells; assay type: functional, cell-based
DLD-1 = test: Anticancer activity against human DLD-1 cells; assay type: functional, cell-based
[28] = Antiproliferative activity against MRC5 cells assessed as reduction in cell growth by MTT assay; assay type: toxicity, cell-based; details: human
NCI-H1299 = test: Antiproliferative activity against human NCI-H1299 cells assessed as reduction in cell growth by MTT assay; assay type: functional, cell-based
A549 [29] = test: Antiproliferative activity against A549 cells assessed as reduction in cell growth by MTT assay; assay type: functional, cell-based; details: Homo sapiens
NCI-H460 = test: Antiproliferative activity against human NCI-H460 cells assessed as reduction in cell growth by MTT assay; assay type: functional, cell-based
MCF7 [30] = test: Antiproliferative activity against MCF7 cells assessed as reduction in cell growth by MTT assay; assay type: functional, cell-based; details: Homo sapiens
HCT-116 [31] = test: Cytotoxicity against human HCT-116 cells after 24 hrs by MTT assay; assay type: functional, cell-based; details: HCT-116, 24 h
HepG2 [32] = test: Cytotoxicity against human HepG2 cells after 24 hrs by MTT assay; assay type: functional, cell-based; details: HepG2, 24 h
MCF7 [33] = test: Cytotoxicity against human MCF7 cells after 24 hrs by MTT assay; assay type: functional, cell-based; details: MCF7, 24 h
[34] = Cytotoxicity against human MCF-10A cells measured after 24 hrs by MTT assay; assay type: toxicity, cell-based

Compound: CCOc1ccc(-c2nccn2-c2cc(OC)c(OC)c(OC)c2)cc1Cl
- IC50 (HeLa [1]): 3.8 nM
- IC50 (HT-29 [2]): 0.4 nM
- IC50 (HL-60): 1.8 nM
- IC50 (MCF7 [3]): 0.7 nM
- IC50 (Tubulin): 870 nM
- IC50 (A549 [4]): 0.57 nM
- IC50 (Jurkat): 0.9 nM
- IC50 (RS4-11): 1.2 nM

Compound: O=C(O)c1ccc(C(=O)NCn2cc(CSc3nc(-c4ccccc4)c(-c4ccccc4)n3-c3ccccc3)nn2)cc1
- IC50 (Caco-2): 4670 nM
- IC50 (HCT-116 [5]): 16800 nM
- IC50 (HeLa [6]): 6870 nM

Compound: CCOC(=O)c1ccccc1-n1c(-c2c(O)[nH]c(=O)[nH]c2=O)cnc1C
- IC50 at 24 h [7]: > 100000 nM
- IC50 (MDA-MB-231): 53600 nM

Compound: NS(=O)(=O)c1ccc(-n2c(-c3ccccc3Br)nc(-c3ccccc3)c2-c2ccccc2)cc1
- IC50 (MCF7 [8]): 2700 nM
- IC50 (A549 [9]): 2800 nM
- IC50 (HT-29 [10]): 3100 nM
- IC50 (PANC-1): 2500 nM

Compound: Nc1nc(-c2ccccc2)cn1/N=C/c1cnc2ccccc2n1
- Activity (MCF7 [11]): 83.3%
- Activity (HCT-116 [12]): 66.6%
- Activity (HFF [13]): 7.1%
- Activity (MCF7 [14]): 64.7%
- Activity (HFF [15]): 35.7%
- Activity (HFF [16]): 33.3%
- Activity (MCF7 [17]): 47.3%
- Activity (HCT-116 [18]): 46.6%
- Activity (HFF [19]): 37.5%
- Activity (MCF7 [20]): 41.1%
- Activity (HCT-116 [21]): 70%
- Activity (HCT-116 [22]): 50%

Compound: Cc1nc([N+](=O)[O-])c(N2CCN(CCCBr)CC2)n1Cc1ccccc1
- IC50 (HepG2 [23]): 32100 nM
- IC50 (PC-3): 48600 nM
- IC50 (MCF7 [24]): 46200 nM
- IC50 (DU-145): 53700 nM

Compound: COc1cccc2c1C=C(c1ncc(-c3ccc(OCc4ccccc4)cc3)[nH]1)CO2
- IC50 (HCT-116 [25]): 370 nM
- IC50 (SNU-C1): 370 nM
- IC50 [26]: 4730 nM
- IC50 (COLO 320): 370 nM
- IC50 (HT-29 [27]): 370 nM
- IC50 (RKO): 370 nM
- IC50 (SW480): 370 nM
- IC50 (SW837): 370 nM
- IC50 (DLD-1): 370 nM

Compound: COc1ccccc1-c1nc(-c2ccccc2)c(-c2ccccc2)n1-c1ccc(S(N)(=O)=O)cc1
- IC50 (MCF7 [8]): 2100 nM
- IC50 (A549 [9]): 2400 nM
- IC50 (HT-29 [10]): 2400 nM
- IC50 (PANC-1): 2200 nM

Compound: CN(C)CCCOc1ccc(-c2nc(-c3ccc([N+](=O)[O-])o3)[nH]c2-c2ccc(OCCCN(C)C)cc2)cc1
- IC50 [28]: 7100 nM
- IC50 (NCI-H1299): < 100 nM
- IC50 (A549 [29]): 6710 nM
- IC50 (NCI-H460): 6950 nM
- IC50 (MCF7 [30]): 6750 nM

Compound: CCOC(=O)N1CCN(c2c([N+](=O)[O-])nc(CC)n2CC)CC1
- IC50 (HepG2 [23]): 5600 nM
- IC50 (PC-3): 49600 nM
- IC50 (MCF7 [24]): 29600 nM
- IC50 (DU-145): 42200 nM

Compound: COc1ccc(-c2c[nH]c(=S)n2/N=C/c2ccccc2O)cc1
- IC50 (HCT-116 [31]): 3990 nM
- IC50 (HepG2 [32]): 1300 nM
- IC50 (MCF7 [33]): 1070 nM
- IC50 at 24 h [34]: 27800 nM
